For orientation: pIC50 means the IC50 on a negative log10 scale, so that one unit is a factor of ten. For orientation: pKi means the negative decadic logarithm of the Ki, by convention in mol/L.

These results are taken from US6090945A, “Tetrahydro-beta-carbolines” (Eli Lilly and Company, priority 1998, dated 2000).

For experiment [1], the target named is T1, 5-HT1c receptor (Bos taurus, UniProt A0AAA9SBU1).
T1 sequence (A0AAA9SBU1 33-457): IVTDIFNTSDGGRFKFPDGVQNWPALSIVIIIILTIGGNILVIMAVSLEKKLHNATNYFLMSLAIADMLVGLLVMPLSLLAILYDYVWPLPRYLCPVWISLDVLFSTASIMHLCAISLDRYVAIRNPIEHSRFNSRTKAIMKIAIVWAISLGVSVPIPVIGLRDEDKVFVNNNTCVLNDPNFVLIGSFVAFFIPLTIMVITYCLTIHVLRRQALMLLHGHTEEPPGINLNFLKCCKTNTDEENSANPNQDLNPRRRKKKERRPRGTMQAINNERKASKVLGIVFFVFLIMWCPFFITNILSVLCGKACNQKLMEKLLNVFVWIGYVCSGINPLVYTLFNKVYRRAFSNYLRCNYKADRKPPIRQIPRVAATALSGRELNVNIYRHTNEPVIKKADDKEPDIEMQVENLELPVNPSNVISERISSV
Nature of the experiment: 5-HT1c radioligand binding assay ([3H]mesulergine displacement). As to conditions: read-out: 5HT1C IC50 (binding displacement); choroid plexus; tritiated mesulergine 2.0 nM; 37° C., 15 minutes.
Experimental: I. Assay for 5-HT1c Affinity
(§1) Beef brain was removed immediately after slaughter, and choroid plexus were dissected over ice. […] Tissues were homogenized in 9 volumes of 0.32 mol/L sucrose and centrifuged at 1,000×g for 10 minutes. The supernatant was centrifuged at 17,000×g for 20 minutes. The pellet was suspended in 100 volumes of 50 mM Tris-HCl (pH7.4), incubated at 37° C. for 10 minutes and centrifuged at 50,000×g for 10 minutes, and the process was repeated three times. The final pellets were frozen at -70° C. and used within 2 weeks. Pellets were rehydrated with physiological buffer prior to use.
(§2) The reactions were terminated by rapid filtration, (Brandel Cell Harvestor), through Whatman GF/B glass filters that had been presoaked in Tris buffer pH 7.4. The filters were then washed 2 times with 5 ml of ice cold Tris buffer pH 7.4. Washed filters were placed in scintillation vials and 10 ml RedySolv, (Brandel), was added and samples were counted in a Searle D-300 beta counter. Means and standard error statistics were calculated for triplicate experimental determinations in certain cases. Mean values were obtained from three or more separate determinations. The incubation time for the reaction mixture was 15 minutes at 37° C.

Experiment [2] addresses T2, cloned rat 5-HT2B receptor (Rattus norvegicus, UniProt P30994).
T2 construct: expressed in transfected cells
Nature of the experiment: 5-HT2B radioligand binding ([3H]5-HT), cloned rat receptor. As to conditions: [3H]5-HT 2 nM, read-out: Rat 2B binding (IC50 converted to Ki).
Experimental: (§3) RAdioligand Binding Studies for 5-HT2 B:
Membrane preparation from transformed cells. Suspension cells expressing the cloned rat 5-HT2B receptor were harvested by centrifugation at 200×g for 15 min at 4° C. […] Membranes for the binding assays were prepared by vortexing the pellet in 50 mM Tris-HCl, pH 7.4 (0.5×10^9 cells/30 ml). The tissue suspension was then centrifuged at 39,800×g for 10 min at 4° C. This procedure was repeated for a total of three washes, with a 10 minute incubation at 37° C. between the first and second wash.
[^3 H]5-HT binding studies. Binding assays were automated using a Biomek 1000 (Beckman Instruments, Fullerton, Calif.) and were performed in triplicate in 0.8 ml total volume. Membrane suspension, 200 μl, (0.04-0.27 mg protein) and 200 μl of drug dilution in water were added to 400 μl of 67 mM Tris-HCl, pH 7.4, containing [^3 H]5-HT, pargyline, CaCl2, and L-ascorbic acid. Final concentrations of pargyline, CaCl2 and L-ascorbic acid were 10 μM, 3 mM and 0.1%, respectively. […] The amount of [^3 H]5-HT trapped on the filters was determined by liquid scintillation spectrometry (Ready Protein and Beckman LS 6000IC, Beckman Instruments, Fullerton, Calif.). For the saturation experiments, actual free radioligand concentrations were determined by sampling the supernatant of parallel saturation experiments in which bound radioactivity had been separated by centrifugation. […] Protein was determined by the method of Bradford, using bovine serum albumin as the standard.
(§4) The Kd and Bmax values from the saturation assays were determined for best fit to a one-site or a two-site binding model using a partial F-test. […] The IC50 values from the competition assays, the binding parameters for the IP3 standard curve and the EC50 and Emax values from the IP3 assays were determined by nonlinear regression analysis of four parameter logistic equations (Systat, Systat Inc, Evanston, Ill.). […]

The target of experiment [3] is Human 2B (Homo sapiens, UniProt P41595). Nature of the experiment: radioligand binding, human 2B. The conditions noted are these: read-out: Human 2B binding (IC50 converted to Ki).
Human 2B, sequence (P41595 whole entry): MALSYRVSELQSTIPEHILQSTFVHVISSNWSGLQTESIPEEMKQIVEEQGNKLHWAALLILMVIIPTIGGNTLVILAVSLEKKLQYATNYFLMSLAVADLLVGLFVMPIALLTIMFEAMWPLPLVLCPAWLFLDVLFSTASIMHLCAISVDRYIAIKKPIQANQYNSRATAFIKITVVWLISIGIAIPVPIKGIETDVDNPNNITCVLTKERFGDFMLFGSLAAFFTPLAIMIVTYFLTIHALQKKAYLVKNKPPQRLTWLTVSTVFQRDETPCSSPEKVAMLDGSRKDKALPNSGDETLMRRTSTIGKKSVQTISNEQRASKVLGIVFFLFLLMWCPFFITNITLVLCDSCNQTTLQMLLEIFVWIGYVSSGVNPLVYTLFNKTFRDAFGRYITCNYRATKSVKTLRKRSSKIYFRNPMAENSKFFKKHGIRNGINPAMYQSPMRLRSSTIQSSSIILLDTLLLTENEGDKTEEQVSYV
Experimental: as §3
[^3 H]5-HT binding studies. Binding assays were automated using a Biomek 1000 (Beckman Instruments, Fullerton, Calif.) and were performed in triplicate in 0.8 ml total volume. Membrane suspension, 200 μl, (0.04-0.27 mg protein) and 200 μl of drug dilution in water were added to 400 μl of 67 mM Tris-HCl, pH 7.4, containing [^3 H]5-HT, pargyline, CaCl2, and L-ascorbic acid. Final concentrations of pargyline, CaCl2 and L-ascorbic acid were 10 μM, 3 mM and 0.1%, respectively. Tubes were incubated at 37° C. for 15 min or at 0° C. for 2 hours (binding equilibria were verified for both of these conditions), then rapidly filtered using a Brandel cell harvester (Model MB-48R; Brandel, Gaithersburg, Md.) through Whatman GF/B filters which had been presoaked in 0.5% polyethylenimine and precooled with ice-cold 50 mM Tris-HCl, pH 7.4. The filters were then washed rapidly four times with one ml ice-cold 50 mM Tris-HCl, pH 7.4. The amount of [^3 H]5-HT trapped on the filters was determined by liquid scintillation spectrometry (Ready Protein and Beckman LS 6000IC, Beckman Instruments, Fullerton, Calif.). For the saturation experiments, actual free radioligand concentrations were determined by sampling the supernatant of parallel saturation experiments in which bound radioactivity had been separated by centrifugation. […] 5-HT, 10 μM, or 1-naphthylpiperazine (1-NP), 10 μM, defined nonspecific binding. […] Protein was determined by the method of Bradford, using bovine serum albumin as the standard.
as §4
In experiment [4] the target is 5-HT2 receptor (Rattus norvegicus, UniProt P14842). Nature of the experiment: 5-HT2 radioligand binding assay ([3H]ketanserin displacement). Also noted: species or system rat (Sprague-Dawley cerebral cortex).
5-HT2 receptor, sequence (P14842 whole entry): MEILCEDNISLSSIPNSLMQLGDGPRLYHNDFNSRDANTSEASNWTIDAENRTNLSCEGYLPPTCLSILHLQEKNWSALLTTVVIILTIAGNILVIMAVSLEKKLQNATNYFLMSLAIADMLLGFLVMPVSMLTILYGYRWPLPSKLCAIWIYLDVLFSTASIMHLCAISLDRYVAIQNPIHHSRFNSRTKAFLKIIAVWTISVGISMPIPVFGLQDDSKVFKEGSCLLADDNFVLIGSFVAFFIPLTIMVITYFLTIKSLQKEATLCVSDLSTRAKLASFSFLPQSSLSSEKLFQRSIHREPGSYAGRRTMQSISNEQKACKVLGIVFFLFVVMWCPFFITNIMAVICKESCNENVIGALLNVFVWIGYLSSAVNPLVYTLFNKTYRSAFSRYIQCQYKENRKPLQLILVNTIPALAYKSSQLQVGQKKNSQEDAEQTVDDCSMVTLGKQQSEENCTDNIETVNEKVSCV
The target in experiment [5] is Human 2A (Homo sapiens, UniProt P28223). Nature of the experiment: radioligand binding, human 2A. As to conditions: read-out: Human 2A binding (IC50 converted to Ki). Here is the method:
The Kd and Bmax values from the saturation assays were determined for best fit to a one-site or a two-site binding model using a partial F-test. De Lean, A., A. A. Hancock, and R. J. Lefkowitz, Mol. Pharmacol. 21: 5-16 (1981). The following equation was used for a one-site binding model, [formula] where Bound=amount of [^3 H]5-HT specifically bound, Bmax =maximum number of binding sites, Kd =equilibrium dissociation constant and [L]=free concentration of [^3 H]5-HT, or a two-site binding model, [formula] where Bound=amount of [^3 H]5-HT specifically bound, Bmax1 =maximum number of high affinity binding sites, Bmax2 =maximum number of low affinity binding sites, Kd1 =equilibrium dissociation constant for the high affinity site, Kd2 =equilibrium dissociation constant for the low affinity site and [L]=free concentration of [^3 H]5-HT. The IC50 values from the competition assays, the binding parameters for the IP3 standard curve and the EC50 and Emax values from the IP3 assays were determined by nonlinear regression analysis of four parameter logistic equations (Systat, Systat Inc, Evanston, Ill.). De Lean, A., A. A. Hancock, and R. J. Lefkowitz, Mol. Pharmacol., 21: 5-16 (1981). The IC50 values were converted to Ki values using the Cheng-Prusoff equation. Cheng, Y., and W. H. Prusoff, Biochem. Pharmacol., 22: 3099-3108 (1973).

Experiment [6] has as its system 5-HT1c receptor. Nature of the experiment: 5-HT1c radioligand binding assay ([3H]mesulergine displacement). The conditions noted are these: versus 5-HT2, as shown by Table II.
Experimental: I. Assay for 5-HT1c Affinity
as §1, §2
[7] abbreviates: rat cerebral cortex, tritiated ketanserin 1 nM, 37° C., read-out: 5HT2 IC50 (binding displacement).

pIC50, pKi: −log10 of the molar value. Structures can show the parent of a compound that is named as a salt. Where two headings read alike, the source gives them in different places.

T2 sequence (P30994 whole entry): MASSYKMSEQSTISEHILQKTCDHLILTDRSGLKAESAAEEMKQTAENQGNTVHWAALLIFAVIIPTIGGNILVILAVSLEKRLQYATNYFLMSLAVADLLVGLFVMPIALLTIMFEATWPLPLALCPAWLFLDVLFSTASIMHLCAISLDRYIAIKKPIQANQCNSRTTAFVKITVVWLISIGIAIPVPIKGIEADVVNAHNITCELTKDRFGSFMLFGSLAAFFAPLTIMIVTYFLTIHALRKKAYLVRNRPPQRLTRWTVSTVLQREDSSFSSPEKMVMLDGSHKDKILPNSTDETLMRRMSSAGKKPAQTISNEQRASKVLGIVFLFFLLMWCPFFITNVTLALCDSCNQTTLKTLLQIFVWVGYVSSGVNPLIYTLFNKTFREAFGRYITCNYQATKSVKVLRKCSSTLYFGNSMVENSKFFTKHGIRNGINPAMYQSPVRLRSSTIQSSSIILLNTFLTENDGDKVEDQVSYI
Human 2A, sequence (P28223 whole entry): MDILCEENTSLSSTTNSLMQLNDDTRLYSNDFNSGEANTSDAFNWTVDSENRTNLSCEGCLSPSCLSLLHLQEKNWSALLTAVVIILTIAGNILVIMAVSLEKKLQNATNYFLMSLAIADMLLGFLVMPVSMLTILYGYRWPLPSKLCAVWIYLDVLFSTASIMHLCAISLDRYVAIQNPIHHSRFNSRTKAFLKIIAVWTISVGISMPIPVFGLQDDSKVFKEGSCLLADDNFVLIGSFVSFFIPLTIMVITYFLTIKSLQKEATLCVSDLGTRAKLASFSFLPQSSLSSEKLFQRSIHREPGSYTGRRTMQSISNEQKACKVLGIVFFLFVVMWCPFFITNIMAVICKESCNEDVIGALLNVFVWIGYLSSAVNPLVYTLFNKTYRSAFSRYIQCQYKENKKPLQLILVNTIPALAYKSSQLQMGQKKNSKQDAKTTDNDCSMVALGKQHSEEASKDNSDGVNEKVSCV

As to `COc1ccc([C@@H](C)[C@@H]2NCCc3c2[nH]c2ccc(C)cc32)cc1OC` (relative stereo) [Example 40], the pIC50 in experiment [1] is 6.77; in experiment [4] (setting [7]), 6.53. Also, the pKi in experiment [2] was 8.25; in experiment [3], 8.85; in experiment [5], 7.35.
The matching figures for `COc1ccc([C@@H](C)[C@@H]2NCCc3c2[nH]c2cc(C)c(C)cc32)cc1OC` (relative stereo) [Example 41, (±) 6,7-dimethyl-1-[(3,4-dimethoxyphenyl)-1-ethyl]-1,2,3,4-tetrahydro-9H-pyrido[3,4-b]indole (Z)-2-butenedioate]: 6.90, 6.76, 8.19, 8.70 and 7.64.
Turning to `CC[C@H](c1ccc(OC)c(OC)c1)[C@@H]1NCCc2c1[nH]c1ccc(C)cc21` (relative stereo) [Example 43, (±) 6-methyl-1-[(3,4-dimethoxyphenyl)-1-propyl]-1,2,3,4-tetrahydro-9H-pyrido[3,4-b]indole (Z)-2-butenedioate], the pIC50 is 6.86 in experiment [1] and 6.75 in experiment [4] (setting [7]). In addition, the pKi in experiment [3] is 9.06; in experiment [5], 7.76.
`COc1ccc(CC2NCCc3c2[nH]c2c(Br)cc(Br)cc32)cc1OC` (centres unmarked) [Example 3, 6,8-dibromo-1-[(3,4-dimethoxyphenyl)methyl]-1,2,3,4-tetrahydro-9H-pyrido[3,4-b]indole]: the “5-HT1c selectivity (low IC50 in 5-HT1c assay, higher IC50 in 5-HT2 assay)” value (“5-HT1c selectivity” for short) in experiment [6] was “particularly 5-HT1c selective”. Further, the pIC50 in experiment [1] is 7.54; in experiment [4] (setting [7]), 6.05.
In the case of `COc1ccc(CC2NCCc3c2[nH]c2c(Br)cc(C)cc32)cc1OC.Cl` (centres unmarked) [Example 4, 6-methyl-8-bromo-1-[(3,4-dimethoxyphenyl)-methyl]-1,2,3,4-tetrahydro-9H-pyrido[3,4-b]indole hydrochloride], in experiment [6], the “5-HT1c selectivity” value is recorded as “particularly 5-HT1c selective”. Moreover, the pIC50 in experiment [1] was 7.70; in experiment [4], 6.88.
For the compound `COc1ccc(CC2NCCc3c2[nH]c2c(F)cc(F)cc32)cc1OC` (centres unmarked) [Example 6, 6,8-difluoro-1-[(3,4-dimethoxyphenyl)-methyl]-1,2,3,4-tetrahydro-9H-pyrido[3,4-b]indole], in experiment [6], the “5-HT1c selectivity” value is reported as “particularly 5-HT1c selective”. The pIC50 in experiment [1] is 7.37; in experiment [4] (setting [7]) it was 6.77.
`COc1ccc(CC2NCCc3c2[nH]c2c(Br)c(C)ccc32)cc1OC.Cl` (centres unmarked) [Example 7, 7-methyl-8-bromo-1-[(3,4-dimethoxyphenyl)-methyl]-1,2,3,4-tetrahydro-9H-pyrido[3,4-b]indole hydrochloride]: in experiment [6], the “5-HT1c selectivity” value is reported as “particularly 5-HT1c selective”. The figures for the pIC50 in experiment [1] and in experiment [4] were 8.29 and below 7.00, respectively.
Regarding `COc1ccc(CC2NCCc3c2[nH]c2c3ccc3ccccc32)cc1OC` (centres unmarked) [Example 10, 7,8,9,10-tetrahydro-10-[(3,4-dimethoxyphenyl)methyl]-11H-benzo [g]pyrido[3,4-b]indole], in experiment [6], the “5-HT1c selectivity” value was “particularly 5-HT1c selective”. For the same compound, the pIC50 in experiment [1] is 7.37; in experiment [4] (setting [7]), 6.66.
`COc1ccc(CC2NCCc3c2[nH]c2ccc(C(C)C)cc32)cc1OC` (centres unmarked) [Example 13, 6-(1-methylethyl)-1,2,3,4-tetrahydro-1-[(3,4-dimethoxyphenyl)methyl]-9H-pyrido[3,4b]indole]: in experiment [6], the “5-HT1c selectivity” value is recorded as “particularly 5-HT1c selective”. Besides, the pIC50 in experiment [1] is 7.32; in experiment [4] (setting [7]), 6.36.
The matching figures for `COc1ccc(CC2NCCc3c2[nH]c2cc(C)cc(C)c32)cc1OC` (centres unmarked) [Example 15, 5,7-dimethyl-1,2,3,4-tetrahydro-1-[(3,4-dimethoxyphenyl)methyl]-9H-pyrido[3,4b]indole hydrochloride]: “particularly 5-HT1c selective”, 7.85 and below 7.00.
The matching figures for `COc1ccc(CC2NCCc3c2[nH]c2cc(C)c(C)cc32)cc1OC` (centres unmarked) [Example 16, 6,7-dimethyl-1,2,3,4-tetrahydro-1-[(3,4-dimethoxyphenyl)methyl]-9H-pyrido[3,4b]indole]: “particularly 5-HT1c selective”, 7.20 and 5.68.
Take `COc1ccc(CC2NCCc3c2[nH]c2ccc(C)cc32)c(OC)c1OC` (centres unmarked) [Example 22, 6-methyl-1-[(2,3,4-trimethoxyphenyl)-methyl]-1,2,3,4-tetrahydro-9H-pyrido[3,4-b]indole hydrochloride]: the results for the pIC50 in experiment [1] and in experiment [4] were 7.52 and 5.85, respectively. The pKi in experiment [2] is 8.27.
